In PMC9910343 (ACS chemical neuroscience, 2022):
“And” between values parts separate entries of the source, which are not always exact repeats. Equal entries are not always repeated.

What was measured:
[1] = Plasma and CSF pharmacokinetics after s.c. or i.v. administration; type: in vivo, rhesus monkeys; settings: for Cmax of metabolite hydroxyvarenicline / AUC of metabolite hydroxyvarenicline: mean
[2] = tested on: neurons expressing PSAM-GlyRs; settings: systemic administration; rhesus monkeys; cited from earlier work
[3] = rats; based on the unbound fraction; cited from earlier work
[4] = after uPSEM817 0.064 mg/kg i.v., CSF
[5] = after uPSEM817 0.064 mg/kg i.v., plasma
[6] = after uPSEM817 0.064 mg/kg s.c., plasma

Row | SMILES | detection of varenicline as metabolite in plasma or CSF ([1]; after uPSEM817 0.064 mg/kg s.c. or i.v.) | neuronal activity in neurons expressing PSAM-GlyRs [2] | CSF:plasma ratio [3] | Tmax of metabolite hydroxyvarenicline [1, 4] | Cmax of metabolite hydroxyvarenicline [1, 4] | Tmax of metabolite hydroxyvarenicline [1, 5] | AUC of metabolite hydroxyvarenicline [1, 5] | Cmax of metabolite hydroxyvarenicline [1, 5] | Tmax of metabolite hydroxyvarenicline [1, 6] | AUC of metabolite hydroxyvarenicline [1, 6] | Cmax of metabolite hydroxyvarenicline [1, 6] | detection of hydroxyvarenicline as metabolite in CSF ([1]; after uPSEM817 0.064 mg/kg, CSF)
1 | c1cnc2cc3c(cc2n1)[C@@H]1CNC[C@H]3C1 [varenicline] | not detected | reduces neuronal activity | 1.25 |  |  |  |  |  |  |  |  | 
2 | O=c1cnc2cc3c(cc2[nH]1)C1CNCC3C1 (stereo not drawn) [hydroxyvarenicline] |  |  |  | 1.5 h | 0.05 ng/mL | 3 h | 1.161 ng·h/mL | 0.87 ng/mL and 0.874 ng/mL | 1 h | 0.556 ng·h/mL | 0.55 ng/mL and 0.553 ng/mL | only detected in a single CSF sample for one animal
